From patent US6884819B1, “Neuropathy remedies” (Teijin Limited, priority 1999, dated 2005)

Assays:
[1] = tested on: Alzheimer's dementia animal model by continuous intraventricular infusion of β protein; assay: Step-through passive evasion test in rats with continuous intraventricular infusion of β-amyloid protein (learning and memory ability improvement effect); type: in vivo, Wistar rats
From the text: A step-through passive evasive reaction apparatus composed of two chambers separated by a guillotine door, was used for the experimental apparatus. Namely, one of the chambers was a bright chamber composed of clear acrylic boards (floor: 15 cm×25 cm, height: 15 cm) while the other chamber was a dark chamber (of the same size) composed of black acrylic boards. In addition, stainless steel grids having a diameter of 4 mm were provided at intervals of 15 mm on the floor of the dark room, and connected to a shock generator for applying an electric shock. To begin with, after opening the guillotine door and allowing to freely explore the inside of the apparatus for 1 minute, the door was closed, the rat was placed in the bright chamber as an acquisition trial and the door was opened 30 seconds later. The door was closed after all four limbs of the rat entered the dark chamber followed immediately by the application of an electric shock. […] As a retention trial conducted 24 hours after the acquisition trial, the rat was placed in the bright chamber and the amount of time until all four limbs entered the dark chamber after the guillotine door was opened 30 seconds later was measured (step-through latency). […] The learning and memory ability improvement action of test compound A was measured using the evaluation methods of Reference Examples 1 and 2. […]

C57BL mice = assay: Toxicity study, single administration into the caudal vein; type: in vivo; conditions: for Mortality: 0.03, 0.3, 3 mg/kg i.v., mice, 14 days observation; for Body weights: 0.03-3 mg/kg i.v., days 1, 3, 7 and 14 after dosing; for General condition starting on the day after dosing: all dose groups, day after dosing through day 14
Method: The test compound solutions were administered into the caudal vein at the rate of about 5 ml per minute. […] In addition, body weights were measured immediately before dosing and on days 1, 3, 7 and 14 after dosing.

Wistar rats = assay: Measurement of blood pressure lowering action (blood pressure and heart rate after intravenous injection without anesthesia); type: in vivo; design: Blood pressure (mmHg, ± standard error): unit not given here; conditions: for Blood pressure (mmHg, ± standard error): 0 min. value assigned 100
Method: Thirty five, male Wistar rats.
Cannulas were inserted into the left carotid artery for measuring blood pressure, and into the left jugular vein for intravenous injection of the test compounds, respectively. After being housed normally in their cages overnight following surgery, the animals were injected with the test solutions without anesthesia. Blood pressure and heart rate were measured immediately before dosing (0 minutes) and at 5, 30, 60, 120 and 240 minutes after dosing. The blood pressure at 0 minutes for each animals was assigned a value of 100, and measured values of blood pressure at each time were then normalized based on that value.

[2] = 0.03 mg/kg i.v., 5 min. after dosing
[3] = 0.03 mg/kg i.v., 30 min. after dosing
[4] = 0.03 mg/kg i.v., 60 min. after dosing
[5] = 0.03 mg/kg i.v., 2 hr. after dosing
[6] = 0.03 mg/kg i.v., 4 hr. after dosing
[7] = 0.3 mg/kg i.v., 5 min. after dosing
[8] = 0.3 mg/kg i.v., 30 min. after dosing
[9] = 0.3 mg/kg i.v., 60 min. after dosing
[10] = 0.3 mg/kg i.v., 2 hr. after dosing
[11] = 0.3 mg/kg i.v., 4 hr. after dosing
[12] = 3 mg/kg i.v., 5 min. after dosing
[13] = 3 mg/kg i.v., 30 min. after dosing
[14] = 3 mg/kg i.v., 60 min. after dosing
[15] = 3 mg/kg i.v., 2 hr. after dosing
[16] = 3 mg/kg i.v., 4 hr. after dosing

| Structure (SMILES) | Mortality (C57BL mice) | Body weights (C57BL mice) | General condition starting on the day after dosing (C57BL mice) | Blood pressure (mmHg, ± standard error) (Wistar rats; [2]) | Blood pressure (mmHg, ± standard error) (Wistar rats; [3]) | Blood pressure (mmHg, ± standard error) (Wistar rats; [4]) | Blood pressure (mmHg, ± standard error) (Wistar rats; [5]) | Blood pressure (mmHg, ± standard error) (Wistar rats; [6]) | Blood pressure (mmHg, ± standard error) (Wistar rats; [7]) | Blood pressure (mmHg, ± standard error) (Wistar rats; [8]) | Blood pressure (mmHg, ± standard error) (Wistar rats; [9]) | Blood pressure (mmHg, ± standard error) (Wistar rats; [10]) | Blood pressure (mmHg, ± standard error) (Wistar rats; [11]) | Blood pressure (mmHg, ± standard error) (Wistar rats; [12]) | Blood pressure (mmHg, ± standard error) (Wistar rats; [13]) | Blood pressure (mmHg, ± standard error) (Wistar rats; [14]) | Blood pressure (mmHg, ± standard error) (Wistar rats; [15]) | Blood pressure (mmHg, ± standard error) (Wistar rats; [16]) | other results |
| --- | --- | --- | --- | --- | --- | --- | --- | --- | --- | --- | --- | --- | --- | --- | --- | --- | --- | --- | --- |
| Cc1cccc(C[C@@H](O)/C=C/[C@H]2[C@H](O)CC3C=C(CCCCC(=O)O)C[C@@H]32)c1 (stereo partly drawn) [Test compound A, (15R)-16-(m-tolyl)-17,18,19,20-tetranorisocarbacycline] |  |  |  |  |  |  |  |  |  |  |  |  |  |  |  |  |  |  | Time until moved to dark chamber during retention trial Mean ± standard error ([1]; β-amyloid protein (1-42) 300 pmol/day + test compound 1.2 fmol/day, intraventricular osmotic pump, max observation 300 sec): 265.7 ± 32.6 (n = 6) sec.; Learning and memory ability improvement action ([1]; β-amyloid protein (1-42) infused rats, overall conclusion): improved learning and memory ability |
| COC(=O)CCCCC1=C[C@H]2C[C@@H](O)[C@H](/C=C/CCc3cccc(C)c3)[C@H]2C1 [Test compound C, 15-deoxy-16-(m-tolyl)-17,18,19,20-tetranorisocarbacycline methyl ester] | none of the animals died | no significant fluctuations | no abnormalities observed in any of the groups |  |  |  |  |  |  |  |  |  |  |  |  |  |  |  | General condition on the day of dosing (C57BL mice; all dose groups (0.03, 0.3, 3 mg/kg i.v.)): no abnormalities observed in any of the groups |
| COC(=O)CCCCC1=C[C@H]2C[C@@H](O)[C@H](/C=C/[C@H](O)Cc3cccc(C)c3)[C@H]2C1 [Test compound B, (15R)-16-(m-tolyl)-17,18,19,20-tetranorisocarbacycline methyl ester] | none of the animals died | no significant fluctuations | no abnormalities observed in any of the groups | 105.8 | 103.4 | 103.6 | 104.5 | 100.5 | 92.9 | 97.7 | 97.7 | 98.5 | 98.0 | mild decrease | 99.4 | 101.9 | 102.7 | 101.0 | Time until decreased movement disappeared after dosing (C57BL mice; 3 mg/kg dose group, i.v.): ≤ 30 min; General condition on the day of dosing (C57BL mice; 3 mg/kg dose group, i.v., starting immediately after dosing): decreased movement; Blood pressure change immediately after dosing (Wistar rats; 3 mg/kg dose group, i.v.): decrease in blood pressure; Heart rate change immediately after dosing (Wistar rats; 3 mg/kg dose group, i.v.): increase in heart rate; Time after dosing at which blood pressure and heart rate returned to normal (Wistar rats; 3 mg/kg dose group, i.v.): 30 min; Blood pressure (mmHg, ± standard error) (Wistar rats; 3 mg/kg i.v., 5 min. after dosing, listed as Test comp. B): 80.4; Fluctuations in blood pressure and heart rate (Wistar rats; 0.3 and 0.03 mg/kg dose groups, i.v.): no significant fluctuations; Effect on the circulatory system (overall conclusion) (Wistar rats; rats, i.v. 0.03-3 mg/kg): extremely mild effect |
| COC(=O)CCCCC1=C[C@H]2C[C@@H](O)[C@H](/C=C/[C@@H](O)Cc3cccc(C)c3)[C@H]2C1 [Comparative Test Compound D, (15S)-16-(m-tolyl)-17,18,19,20-tetranorisocarbacycline methyl ester, reference compound] |  |  |  | 88.9 | 92.1 | 96.5 | 97.3 | 99.0 | 49.6 | 78.5 | 94.4 | 93.3 | 99.3 | 55.0 | 60.0 | 81.1 | 103.8 | 115.4 | Duration of decreased blood pressure (Wistar rats; 3 mg/kg and 0.3 mg/kg dose groups, i.v.): ≥ 30 min |
